The text below walks through data of ChEMBL document CHEMBL1201862, “PubChem BioAssay data set” (2004).

Among the test systems are HT-29; PC-3; SF-295; MDA-MB-435; SK-OV-3; KM12; 786-0; SF-268; A549; BT-549; DU-145; UACC-62; HCT-15; OVCAR-4; LOX IMVI; OVCAR-5.
What all share (assay): DTP human tumour cell line panel, 48 h

By GI50 is commonly meant the concentration at which growth is held to half of that of the control.

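Briefly, cells in 96-well plates were exposed to five compound concentrations for 48 h, and endpoints were estimated by linear interpolation. The concentration for 50% growth inhibition is given as GI50.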 Calls of active or inactive are those of the source. No stated cut-off is given here; in the data, active = GI50 up to about 1.1 µM and inactive = higher.

Regarding `CCn1c(=O)c2c3cc(OC(C)=O)ccc3oc2c2ccc(OC(C)=O)cc21`, the GI50 with HT-29 was 37.3 µM (inactive); in the assay on PC-3, 33 µM (inactive); in the assay with SF-295, 19.8 µM (inactive); in the assay on MDA-MB-435 it was 31.1 µM (inactive); in the assay with SK-OV-3, 75.9 µM (inactive); with KM12 it was 40.1 µM (inactive). In addition, the GI50 in the assay with 786-0 is 56.1 µM (inactive); in the assay on SF-268, 31.9 µM (inactive); in the assay on A549, 43.9 µM (inactive); in the assay on BT-549, 30.5 µM (inactive); in the assay with DU-145 it was 36.1 µM (inactive); in the assay on UACC-62 it was 21.7 µM (inactive). The GI50 in the assay with HCT-15 is 39.1 µM; in the assay on OVCAR-4, 36.9 µM (inactive).

As for `c1ccc(/N=C2\c3ccccc3CN2c2ccccc2)cc1`, the GI50 in the assay on HT-29, in the assay with PC-3, in the assay on SF-295, in the assay on MDA-MB-435, in the assay with SK-OV-3 and in the assay with KM12 was > 100 µM (inactive) each time. In addition, the GI50 in the assay with 786-0, in the assay with SF-268, in the assay on A549, in the assay on BT-549, with DU-145 and with UACC-62 was > 100 µM (inactive) in each case. Besides, the GI50 is > 100 µM (inactive) in the assay on LOX IMVI, > 100 µM in the assay on HCT-15 and > 100 µM (inactive) with OVCAR-4.

As for `CC1=CC(=O)c2cccc(NC3=NCCO3)c21`, the GI50 with HT-29 was 34 µM (inactive); with PC-3, 46.6 µM (inactive); in the assay on SF-295 it was > 100 µM (inactive); in the assay on MDA-MB-435 it was 31.6 µM (inactive); in the assay on SK-OV-3, > 100 µM (inactive); with OVCAR-5, > 100 µM (inactive). The GI50 was 30.4 µM (inactive) with KM12; 86.5 µM (inactive) with 786-0; > 100 µM (inactive) in the assay with SF-268; 81.7 µM (inactive) in the assay on A549; 74.1 µM (inactive) with DU-145; > 100 µM (inactive) in the assay on UACC-62. The values for the GI50 in the assay with LOX IMVI, in the assay with HCT-15 and in the assay on OVCAR-4 were 37.8 µM (inactive), 49.4 µM and 78.7 µM (inactive), respectively.

With `C[C@H](NC(=O)C(Cc1ccccc1)(Cc1ccc(O)cn1)NC(=O)c1ccccc1)c1ccccc1` (some centres not stated), the GI50 was 17.5 µM (inactive) in the assay with HT-29; 14.2 µM (inactive) in the assay on PC-3; 14.6 µM (inactive) in the assay with SF-295; 16.5 µM (inactive) with MDA-MB-435; 21.9 µM (inactive) in the assay on OVCAR-5; 19.8 µM (inactive) with KM12. Besides, the GI50 with 786-0 was 16.7 µM (inactive); in the assay with SF-268, 18.2 µM (inactive); in the assay with A549 it was 14.3 µM (inactive); with BT-549 it was 18.1 µM (inactive); in the assay with DU-145, 18.6 µM (inactive); in the assay with UACC-62, 13.2 µM (inactive). In addition, the GI50 with LOX IMVI is 14.8 µM (inactive); in the assay on HCT-15 it was 18 µM; in the assay with OVCAR-4, 15.1 µM (inactive).

Take `COC(=O)c1c2c(cc3c1CC1(Cc4cc5c(c(C=O)c4C1)CCC5)C3)CCC2` (configuration not stated): the GI50 in the assay with HT-29 was 21.4 µM (inactive); with PC-3, 30.8 µM (inactive); in the assay on SF-295, 41.4 µM (inactive); with MDA-MB-435 it was 17.7 µM (inactive); with SK-OV-3 it was 42.5 µM (inactive); in the assay with OVCAR-5, 67.8 µM (inactive). The GI50 is 29.4 µM (inactive) in the assay with 786-0; 50.7 µM (inactive) in the assay with SF-268; 27.9 µM (inactive) in the assay on A549; 38.1 µM (inactive) in the assay with DU-145; 22.5 µM (inactive) in the assay on LOX IMVI; 40.3 µM with HCT-15. Also, in the assay on OVCAR-4, the GI50 is > 100 µM (inactive).

Consider `Cc1cc2c(cc1C)C(=O)C1(C2)Cc2c(C)ccc(C)c2C1=O` (configuration not stated), for which the GI50 with PC-3, in the assay with SF-295, in the assay with MDA-MB-435, in the assay with OVCAR-5, with KM12 and with 786-0 was > 100 µM (inactive) throughout. In addition, the GI50 with SF-268, in the assay with A549, with BT-549, with DU-145, in the assay on UACC-62 and with LOX IMVI was > 100 µM (inactive) each time. For the same molecule, the GI50 in the assay on HCT-15 was > 100 µM; in the assay with OVCAR-4, > 100 µM (inactive).

Consider `CC1=NNC(=O)C1C1CC(c2c[nH]c3ccccc23)=NNC1=S` (configuration not stated), for which the GI50 was > 100 µM (inactive) in the assay with HT-29; > 100 µM (inactive) with PC-3; > 100 µM (inactive) in the assay on SF-295; 94.4 µM (inactive) with MDA-MB-435; > 100 µM (inactive) in the assay with SK-OV-3; > 100 µM (inactive) in the assay on OVCAR-5. Further, the GI50 in the assay on KM12 is 29.6 µM (inactive); with 786-0, > 100 µM (inactive); in the assay with SF-268, > 100 µM (inactive); in the assay with A549, > 100 µM (inactive); in the assay with BT-549, 50.2 µM (inactive); in the assay on DU-145, > 100 µM (inactive). Further, the GI50 in the assay on UACC-62 was > 100 µM (inactive); in the assay on HCT-15, 39.7 µM.

Regarding `Cc1nc(Nc2ccc(Cl)cc2Cl)sc1C(=O)Nc1ccccc1`, the GI50 with HT-29 is 35.3 µM (inactive); in the assay on PC-3, 31 µM (inactive); in the assay with SF-295, 29.9 µM (inactive); with MDA-MB-435, 42.2 µM (inactive); in the assay on SK-OV-3, > 100 µM (inactive); with OVCAR-5, > 100 µM (inactive). For the same molecule, the GI50 was 35.8 µM (inactive) in the assay on KM12; 53.6 µM (inactive) with 786-0; 77.6 µM (inactive) with SF-268; 36.6 µM (inactive) in the assay on A549; > 100 µM (inactive) with DU-145; 82.6 µM (inactive) with UACC-62. In addition, the figures for the GI50 with LOX IMVI, in the assay on HCT-15 and in the assay with OVCAR-4 were 23.4 µM (inactive), 74.1 µM and 73.6 µM (inactive), respectively.

On to `Cc1cc(C)c(C(=O)c2nnc3ccccc3c2N)c(C)c1`, for which the GI50 was 25.5 µM (inactive) in the assay on HT-29; 17.4 µM (inactive) in the assay with PC-3; 15.8 µM (inactive) with MDA-MB-435; 32.4 µM (inactive) in the assay on SK-OV-3; 15.8 µM (inactive) in the assay with OVCAR-5; 16.4 µM (inactive) in the assay with KM12. The GI50 is 12.3 µM (inactive) with 786-0; 48.3 µM (inactive) in the assay on SF-268; 23.3 µM (inactive) in the assay with A549; 63.1 µM (inactive) in the assay with BT-549; 27 µM (inactive) in the assay with DU-145; 16.4 µM (inactive) in the assay on UACC-62. Moreover, the GI50 with LOX IMVI was 16 µM (inactive).

Take `S=C1NCCN1C(=S)Nc1ccccc1`: the GI50 in the assay with HT-29 is > 100 µM (inactive); in the assay on SF-295 it was > 100 µM (inactive); in the assay on MDA-MB-435 it was 46.5 µM (inactive); with SK-OV-3 it was > 100 µM (inactive); in the assay on OVCAR-5, > 100 µM (inactive); in the assay on KM12 it was 49.9 µM (inactive). In addition, the GI50 with 786-0 was > 100 µM (inactive); with SF-268 it was 99.5 µM (inactive); with A549 it was 44.1 µM (inactive); in the assay with BT-549 it was 83 µM (inactive); in the assay on DU-145, > 100 µM (inactive); with UACC-62, 96.8 µM (inactive). Besides, the GI50 in the assay with LOX IMVI is > 100 µM (inactive); in the assay with HCT-15, 68.9 µM; with OVCAR-4, 21.9 µM (inactive).

Take `Cc1ccc(/C(=C\C(=O)C(=O)NC23CC4CC(CC(C4)C2)C3)Sc2ccccc2)cc1`: the GI50 with HT-29 was > 10 µM (inactive); with PC-3, 4.31 µM (inactive); with SF-295 it was > 10 µM (inactive); in the assay on MDA-MB-435 it was > 10 µM (inactive); in the assay on SK-OV-3, > 10 µM (inactive); in the assay on OVCAR-5, > 10 µM (inactive). The GI50 is > 10 µM (inactive) in the assay on KM12; > 10 µM (inactive) with 786-0; > 10 µM (inactive) with SF-268; > 10 µM (inactive) in the assay on DU-145; > 10 µM (inactive) in the assay on LOX IMVI; > 10 µM in the assay on HCT-15. In the assay with OVCAR-4, the GI50 is 6.43 µM (inactive).

On to `CC(=O)OCC12C(=O)C[C@@H](C)C3(CC(c4ccoc4)OC3=O)C1CCC(OC(C)=O)C21CO1` (some centres not stated), for which the GI50 in the assay with HT-29, in the assay with PC-3, with SF-295, with MDA-MB-435, with OVCAR-5 and in the assay on KM12 was > 100 µM (inactive) each time. Also, the GI50 in the assay with 786-0, in the assay on SF-268, in the assay on A549, in the assay on BT-549, in the assay with DU-145 and in the assay on UACC-62 was > 100 µM (inactive) in each case. The GI50 in the assay with LOX IMVI is > 100 µM (inactive); with HCT-15, > 100 µM; in the assay on OVCAR-4, > 100 µM (inactive).

As to `COC(=O)c1c2c(cc3c1CC1(Cc4cc5c(c(C(C)=O)c4C1)CCCC5)C3)CCCC2` (configuration not stated), the GI50 in the assay with HT-29 is 48.8 µM (inactive); in the assay on PC-3 it was 24.6 µM (inactive); in the assay with SF-295, > 100 µM (inactive); in the assay on MDA-MB-435, 92.5 µM (inactive); with SK-OV-3 it was > 100 µM (inactive); with OVCAR-5, > 100 µM (inactive). The GI50 is > 100 µM (inactive) with KM12; > 100 µM (inactive) in the assay with 786-0; > 100 µM (inactive) with A549; > 100 µM (inactive) in the assay with UACC-62; > 100 µM (inactive) in the assay on LOX IMVI; > 100 µM with HCT-15. In addition, in the assay with OVCAR-4, the GI50 is > 100 µM (inactive).

Regarding `CC(=O)C(C(C)=O)=C1CCCC(O)O1` (configuration not stated), the GI50 with HT-29, with SF-295, in the assay with MDA-MB-435, in the assay with SK-OV-3, in the assay on OVCAR-5 and in the assay with KM12 was > 100 µM (inactive) throughout. Besides, the GI50 in the assay on 786-0 is > 100 µM (inactive); with SF-268 it was > 100 µM (inactive); in the assay on A549, > 100 µM (inactive); in the assay with DU-145 it was > 100 µM (inactive); in the assay with UACC-62 it was > 100 µM (inactive); in the assay on HCT-15, > 100 µM. In addition, the GI50 with OVCAR-4 is > 100 µM (inactive).
